Legend:
UACC257 xenografts = assay: Xenograft tumor study; assay type: in vivo, mice; conditions: 2,4-DNP 20 mg/kg/day or vemurafenib 75 mg/kg/day by oral gavage
UACC257 cells [1] = assay: Lactate assay after 2,4-DNP; assay type: cell-based; conditions: 50 μg/mL, 24 h
Method: (§1) FIG. 7E are histograms showing the effects of 2,4-DNP (50 μg/mL, 24 h) on the lactate levels in the indicated cell lines in vitro.
(§2) Indicated cell lines were plated in complete media overnight. […] Results were normalized to cell number. All assays were performed in logarithmically growing cells.

A375P cells [2] = assay: Lactate assay after 2,4-DNP; assay type: cell-based; conditions: 50 μg/mL, 24 h
Method: as §1, §2

A375P xenografts = assay: Xenograft tumor study; assay type: in vivo, mice; conditions: 2,4-DNP 20 mg/kg/day by oral gavage
Method: FIG. 7G are line graphs showing the effect of 2,4-DNP (20 mg/kg/day) or vemurafenib (75 mg/kg/day) on murine melanoma xenografts of A375P cell line (n=7-8 per group). **, p<0.01 compared to vehicle group; ***, p<0.001 compared to vehicle group.
All mouse experiments (tumor nucleation studies and longitudinal drug treatment) were done in accordance with Institutional Animal Care and Use Committee (IACUC) approved animal protocols at Dana-Farber Cancer Institute. Engineered melanoma cells with BRAF(V600E)+vector or +MITF were inoculated subcutaneously at three flank positions (100,000 cells in 100 μL PBS per site) in NCR-FoxNu (male, 6 weeks) animals. Tumor establishment was monitored and experiment was terminated after 10 weeks. For longitudinal tumor treatment studies, melanoma cell lines (A375P and UACC257, both carrying pFUW-mCherry-puro-LUC) were injected subcutaneously into NCR-FoxNu mice (5,000,000 cells in 100 μL PBS with growth factor reduced matrigel). Initial tumor establishment and growth visualized by in vivo imaging by comparing signal obtained seven (7) days apart. […] Treatment with vemurafenib (75 mg/kg/day) or 2,4-DNP (20 mg/kg/day) was administered by oral gavage in 0.5% methyl cellulose and tumor size measured by calipers twice weekly. Mean response measured based on cohorts of 6-7 mice for each arm (and each cell line).

[3] = test system: BRAF(V600E)+vector and BRAF(V600E)+MITF melanoma cells; assay: Cell number after 2,4-DNP in isogenic cells; assay type: cell-based, human; conditions: 72 h
Method: FIG. 7A are histograms showing the number of BRAF(V600E)+vector and BRAF(V600E)+MITF melanoma cells following treatment with 2,4-DNP with indicated dose for 72 h.
as §2

[4] = test system: melanoma cells or primary human melanocytes; assay: Cell number after 2,4-DNP, melanoma cells versus melanocytes; assay type: cell-based; conditions: 50 μg/mL, 72 h
Method: FIG. 13 are histograms showing the number of melanoma cells or primary human melanocytes following treatment with 2,4-DNP (50 μg/mL) for 72 h. **, p<0.01 compared to primary melanocytes treated with 2,4-DNP.
as §2

melanoma cells (M14) = assay: Cell number, mitochondrial inhibitors combined with PLX4720; conditions: in vitro; cell number after 72 hrs
Method: (§3) Melanoma cell were treated for 24 h with PLX4720 then mitochondrial uncoupler for 48 h, prior to estimation of cell number.
as §3
(§4) Cell number was calculated using the CYQUANT® assay (INVITROGEN™) or crystal violet staining. Lactate measurements were done using the Lactate Assay (BioVision or SIGMA®) per manufacturer's protocols. Indicated cell lines were plated in complete media overnight. Media was changed to serum free-media to avoid interference with the assay for 16 h with either PLX4720 (3 μM) or PLX4032 (1 μM) or vehicle control prior to harvesting cells and measurement of lactate. Results were normalized to cell number. All assays were performed in logarithmically growing cells.

UACC257 cells [5] = assay: ATP assay after 2,4-DNP; assay type: cell-based; conditions: 50 μg/mL, 24 h
Method: (§5) FIG. 7D are histograms showing the effects of 2,4-DNP (50 μg/mL, 24 h) on ATP in the indicated cell lines in vitro.
(§6) Glucose uptake (relative to total cell numbers) was measured over 24 h as trace [^3H]-deoxyglucose uptake in cells growing in glucose-containing media followed by plate harvest and subsequent analysis on a PerkinElmer® Wallac 1450 Microbeta scintillation counter. Oxygen consumption was measured using XF Flux Analyzer (Seahorse Biosciences) using standard protocols. ATP measurements were conducted using ENLITEN® ATP assay (PROMEGA®) according to standard trichloroacetic acid (TCA) extraction protocols.

A375P cells [6] = assay: ATP assay after 2,4-DNP; assay type: cell-based; conditions: 50 μg/mL, 24 h
Method: as §5, §6

BRAF wild-type melanoma = assay: PGC1α mRNA by quantitative PCR; assay type: cell-based; conditions: 1 μM, 24 h
UACC-257 cells = assay: Pigmentation of cell pellets; assay type: cell-based; conditions: 72 h
From the text: Equal number of cells was pelleted by centrifugation.

[7] = test system: BRAF mutant colon cancer cell lines; assay: phospho-ERK Western blot; assay type: cell-based; conditions: two BRAF mutant colon cancer cell lines; 1 μM, 24 h
Method: FIG. 2B are representative Western blots showing the ERK activity in melanoma or colon cancer cells treated with PLX4720 (1 μM) for 24 h.
(§7) Whole cell lysates were prepared in lysis buffer supplemented with protease and phosphatase inhibitors (Roche). Equal amounts of protein were resolved by electrophoresis on gradient gels (Bio-Rad).
(§8) Melanoma biopsies prior and during treatment were sectioned, embedded in paraffin and stained with the phospho-ERK1/2 antibody (Cell Signaling Technology). PLX4720 was used at 1 μM concentration in all assays, whereas control samples were treated with an equal volume of DMSO.

[8] = test system: BRAF mutant (UACC-62) melanoma cell line; assay: MITOSOX fluorescence assay; assay type: cell-based; conditions: 1 μM, 72 h
Method: (§9) MITOTRACKER® Red, Green and MITOSOX™ were obtained from INVITROGEN™ using manufacturer's recommended protocols. Mean fluorescence was determined by FlowJo software and normalized to vehicle-treated cells.

[9] = test system: melanoma cell line that does not contain the BRAF mutation; assay: phospho-ERK Western blot; assay type: cell-based; conditions: melanoma cell line without BRAF mutation
Method: FIG. 1G are representative Western blots showing activated ERK activity in cells of FIG. 1f using phospho-ERK antibodies.
as §7, §8

[10] = test system: melanomas with BRAF mutations; assay: PGC1α mRNA by quantitative PCR; assay type: cell-based; conditions: 1 μM, 24 h
[11] = test system: BRAF mutant (UACC-62 and UACC-257) melanoma cell lines; assay: MITOTRACKER Green flow cytometry (mitochondrial density); assay type: cell-based; conditions: 1 μM, 72 h; two BRAF mutant melanomas
Method: as §9

[12] = test system: BRAF wild-type (MeWo) melanoma cell line; assay: as above; assay type: cell-based; conditions: 1 μM, 72 h
Method: as §9

[13] = test system: BRAF mutant melanoma M14 cells; assay: PGC1β mRNA time course; assay type: cell-based; conditions: over 24 hours
[14] = test system: BRAF mutant melanoma cell line UACC62; assay: Electron microscopy, mitochondrial number; assay type: cell-based; conditions: 3 μM, 72 hrs
Method: Electron microscopy of UACC-62 melanoma cells treated with vehicle or PLX4720 (3 μM, 72 hrs) was performed at Massachusetts General Hospital's PMB Microscopy Core. Cells were fixed for 1 hr at room temp in 2.0% glutaraldehyde in 0.1 M sodium cacodylate buffer, pH 7.4 (Electron Microscopy Sciences, Hatfield, Pa.). Cells were rinsed in buffer, scraped and pelleted. The pellets were treated with 1.0% osmium tetroxide (EMS) in cacodylate buffer for 1 hr at room temp. They were rinsed and then resuspended in 2.0% agarose for ease of handling. Small pieces were dehydrated through a graded series of ethanol, then infiltrated with eponate resin (Ted Pella, Redding, Calif.) overnight at room temp. They were then embedded in resin overnight at 60° C. Thin sections were cut on a Leica UC6 ultramicrotome, collected onto formvar-carbon coated slot grids and post-stained with uranyl acetate and lead citrate. […] Images were collected with an AMT digital imaging system (Advanced Microscopy Techniques, Danvers, Mass.). Mitochondrial density was calculated by morphometrics by standard protocols.

[15] = test system: BRAF mutant colon cancer cell lines; assay: PGC1α mRNA by quantitative PCR; assay type: cell-based; conditions: two BRAF mutant colon cancer cell lines; 1 μM, 24 h
PGC1α promoter = PGC1α promoter luciferase assay; assay type: cell-based; conditions: UACC-62 cells; 48 h; wild-type promoter
Method: The murine PGC1α promoter was obtained from ADDGENE. Mutant promoters were verified by sequencing. UACC-62 cells were transfected with each promoter construct, pRL-CMV Renilla control and a M-MITF overexpression vector. PLX4720 treatment was for 48 h. Results reported are averages of at least three independent experiments, normalized for transfection efficiency using Renilla luciferase.

[16] = test system: BRAF mutant (UACC-62) melanoma cell line; assay: MITOTRACKER Red flow cytometry; assay type: cell-based; conditions: 1 μM, 72 h
Method: as §9

BRAF mutant melanomas [17] = assay: Lactate assay; assay type: cell-based; conditions: all BRAF mutant melanomas evaluated; 16 hours
Method: (§10) FIG. 1F are histograms showing the lactate levels in media conditioned from the indicated cell lines treated with PLX4720 or vehicle control for 16 hours.
as §4

[18] = test system: melanoma cell line that does not contain the BRAF mutation; assay: Lactate assay; assay type: cell-based; conditions: melanoma cell line without BRAF mutation; 16 hours
Method: as §10, §4

[19] = test system: BRAF(V600E) parental cells; assay: ATP assay in isogenic cells; assay type: cell-based, human; conditions: 1 μM, 24 h
Method: FIG. 6G are histograms showing the ATP levels, normalized to cell number in BRAF(V600E)+vector and BRAF(V600E)+MITF treated with PLX4032 (1 μM) for 24 h. ***, p<0.001 compared to control cells.
as §6

BRAF mutant melanomas [20] = assay: Gene set enrichment analysis of melanoma cell lines treated with vemurafenib; assay type: cell-based; conditions: PLX4032 treated melanoma cell lines (n = 6)

## O=[N+]([O-])c1ccc(O)c([N+](=O)[O-])c1 [2,4-DNP, 2,4-dinitrophenol]
UACC257 xenografts
  tumor growth: profoundly inhibited tumor growth
UACC257 cells [1]
  lactate: increases
A375P cells [2]
  increases in lactate: not
A375P xenografts
  tumor growth: insensitive
[3]
  sensitivity of BRAF(V600E)+MITF cells versus BRAF(V600E)+vector cells (cell number): significantly more sensitive
[4]
  sensitivity of melanoma cells compared to primary melanocytes (cell number): more sensitive to DNP than primary melanocytes, except A375P
Melanoma cells (M14)
  Combination Index with PLX4720 (additively enhanced the efficacy of PLX4720): 0.9
UACC257 cells [5]
  ATP: decrease
A375P cells [6]
  decrease in ATP: not

## CCCS(=O)(=O)Nc1ccc(F)c(C(=O)c2c[nH]c3ncc(Cl)cc23)c1F [PLX4720, N-[3-[(5-Chloro-1H-pyrrolo[2,3-b]pyridin-3-yl)carbonyl]-2,4-difluorophenyl]-1-propanesulfonamide]
BRAF wild-type melanoma
  expression of PGC1α: No change
UACC-257 cells
  pigmentation: increased pigmentation
[7]
  ERK phosphorylation: suppression of ERK phosphorylation similar to that seen in melanomas
[8]
  production of mitochondrial oxidative stress (MITOSOX): increased
[9]
  ERK signaling: inability of PLX4720 to suppress ERK signaling
[10]; M14 cells, control siRNA
  PGC1α mRNA: strongly induced
[10]; UACC62 cells, control siRNA
  induction of PGC1α mRNA: 3 fold
[10]; all melanomas with BRAF mutations
  increase in PGC1α mRNA: 3-14 fold
[11]
  mitochondrial density (MITOTRACKER Green): increased
[12]
  mitochondrial density (MITOTRACKER Green): did not affect
[13]
  PGC1β mRNA: no change
[14]
  number of mitochondria per cell: significant increase
[15]
  PGC1α expression: no effect
PGC1α promoter
  activity of PGC1α promoter upstream of luciferase: induction of the wild-type promoter
[16]
  MITOTRACKER Red fluorescence (mitochondrial activity and mass): induced
BRAF mutant melanomas [17]
  lactate levels: reduced
[18]
  lactate levels: did not change

## CCCS(=O)(=O)Nc1ccc(F)c(C(=O)c2c[nH]c3ncc(-c4ccc(Cl)cc4)cc23)c1F [vemurafenib]
[19]
  drop in ATP: 42%
BRAF mutant melanomas [20]; gene set size 15
  ES, CANCERDRUGS_PROBCELL_UP: −0.6598
  NES, CANCERDRUGS_PROBCELL_UP: −1.791
BRAF mutant melanomas [20]; gene set size 17
  ES, CAMPTOTHECIN_PROBCELL_UP: −0.6506
  NES, CAMPTOTHECIN_PROBCELL_UP: −1.802
BRAF mutant melanomas [20]; gene set size 19
  ES, ATP_SYNTHESIS: −0.6141
  ES, FLAGELLAR_ASSEMBLY: −0.6141
  ES, TYPE_III_SECRETION_SYSTEM: −0.6141
  NES, ATP_SYNTHESIS: −1.75
  NES, FLAGELLAR_ASSEMBLY: −1.8
  NES, TYPE_III_SECRETION_SYSTEM: −1.739
BRAF mutant melanomas [20]; gene set size 20
  ES, CITRATE_CYCLE_TCA_CYCLE: −0.8827
  ES, PHOTOSYNTHESIS: −0.6181
  NES, CITRATE_CYCLE_TCA_CYCLE: −2.017
  NES, PHOTOSYNTHESIS: −1.797
BRAF mutant melanomas [20]; gene set size 23
  ES, BRENTANI_TRANSPORT_OF_VESICLES: −0.604
  NES, BRENTANI_TRANSPORT_OF_VESICLES: −1.772
BRAF mutant melanomas [20]; gene set size 25
  ES, HSA00020_CITRATE_CYCLE: −0.6303
  NES, HSA00020_CITRATE_CYCLE: −1.94
BRAF mutant melanomas [20]; gene set size 29
  ES, HSA00640_PROPANOATE_METABOLISM: −0.5472
  NES, HSA00640_PROPANOATE_METABOLISM: −1.733
BRAF mutant melanomas [20]; gene set size 35
  ES, VALINE_LEUCINE_AND_ISOLEUCINE_DEGRADATION: −0.5231
  NES, VALINE_LEUCINE_AND_ISOLEUCINE_DEGRADATION: −1.732
BRAF mutant melanomas [20]; gene set size 42
  ES, HSA000280_VALINE_LEUCINE_AND_ISOLEUCINE_DEGRADATION: −0.5627
  NES, HSA000280_VALINE_LEUCINE_AND_ISOLEUCINE_DEGRADATION: −1.945
BRAF mutant melanomas [20]; gene set size 55
  ES, OXIDATIVE_PHOSPHORYLATION: −0.5114
  NES, OXIDATIVE_PHOSPHORYLATION: −1.891
BRAF mutant melanomas [20]; gene set size 100
  ES, HSA00190_OXIDATIVE_PHOSPHORYLATION: −0.4531
  NES, HSA00190_OXIDATIVE_PHOSPHORYLATION: −1.845
BRAF mutant melanomas [20]; gene set size 227
  ES, PENG_GLUTAMINE_UP: −0.3896
  NES, PENG_GLUTAMINE_UP: −1.777

Reference: patent publication US9937161B2, “Combinatorial compositions and methods for treatment of melanoma” (THE GENERAL HOSPITAL CORPORATION, priority 2013, dated 2018)
